{
  "source": "patent US20240091366A1",
  "about": "“NOVEL ACID-SENSITIVE APTAMER TRIPTOLIDE CONJUGATE AND APPLICATIONS” (priority 2022, published 2024)",
  "experiment_in_all_cases": "MTT assay, cell proliferation inhibition",
  "assay_type_in_all_cases": "cell-based",
  "key": {"[1]": {"tested_on": "lung adenocarcinoma cell line A549", "conditions": "Homo sapiens, 48 h", "text": "(§1) Material: aptamer triptolide conjugate (AS1411-TP). Triptolide (TP) was provided by Shanghai Yaji Biotechnology Co. Ltd; aptamer (AS1411) was obtained from Chengdu Pilot Drug Development Co. Ltd; trypsin, thiazolyl blue (MTT) (Biofroxx, Germany); dimethyl sulfoxide (DMSO) (MP Biomedicals, France); fetal bovine serum (FBS) (Newzerum, New Zealand); DMEM medium, RPMI1640 medium, Petri dishes, 96-well plates (Corning, USA); colon cancer cells HCT116, breast cancer cells MDA-MB-231, non-small-cell lung cancer cells A549, pancreatic cancer cells PANC-1, and hepatocellular carcinoma cells HepG2 were purchased from the Shanghai Cell Bank of the Chinese Academy of Sciences and preserved in the laboratory.\n(§2) Take the tumor cells HCT116, MDA-MB-231, A549, PANC-1 and HepG2 cell lines from the liquid nitrogen tank, place them in a 37° C. water bath, wait for the frozen cells to melt into cell suspension, centrifuge the cells at 1000 r/min for 3 min, discard the supernatant, add 1 ml of fresh complete medium containing 10% fetal bovine serum and 1% double antibody to mix the cells, then add 5 ml of medium, gently and repeatedly blowing the cells with a pipette gun to make them mix well. Then add 5 ml of medium, blow the cells gently and repeatedly with a pipette gun to mix them well, and finally transfer the cell suspension to a […] and label the cell name, cell number, date of resuscitation and the operator's name, and place it in a cell culture incubator for cultivation. (HCT116, PANC-1 and HepG2 cell lines were cultured in DMEM medium, while MDA-MB-231 cell line and A549 cell line were cultured in RPMI1640 medium).\n(§3) Take HCT116, MDA-MB-231, A549, PANC-1, HepG2 cells with good growth status, remove the medium, add 1 ml of sterile PBS to wash, add 1.5 ml of trypsin to digest the cells, about 2 min later the cells become round and fall off, add 1.5 ml of medium to terminate the digestion, transfer it to centrifugal tube, centrifuge at 1000 r/min for 3 min, discard the supernatant, add 1 ml of fresh medium to resuspend, then add fresh medium for 1:3 distribution to other culture dishes, and label the date of transmission and the number of generations. Place in the cell culture incubator for cultivation.\n(§4) Take HCT116, MDA-MB-231, A549, PANC-1, HepG2 cells with good growth status, by the same operation as the cell passaging experiment, after cell resuspension, cell counting with hemocyte counting plate, with 2500 cells/well, plant in 96-well plate, after 24 h of cell culture, remove the original medium, add medium containing different concentrations of drugs and continue to cultivate for 48 hours. After 24 h of cell culture, the original medium was removed and the medium containing different concentrations of drugs was added to continue the culture for 48 hours. […] The above steps were repeated three times."}, "[2]": {"tested_on": "hepatocellular carcinoma cell line HepG2", "conditions": "48 h", "text": "as §1, §2, §3, §4"}, "[3]": {"tested_on": "breast cancer cell line MDA-MB-231", "conditions": "48 h", "text": "as §1, §2, §3, §4"}},
  "note": "“And” between values parts separate entries of the source, which are not always exact repeats. Identical values can stand only once.",
  "data": [
    {"smiles": "CC(C)[C@]12O[C@H]1[C@@H]1O[C@]13[C@]1(O[C@H]1C[C@H]1C4=C(CC[C@@]13C)C(=O)OC4)[C@@H]2O", "note": "[TP, Triptolide]", "values": [
      {"measurement": "inhibition at 0.0063 µM", "setting": "[1]; A549, 48 h, A549, 6.3 nM, samples 1-3, read-out: cell proliferation inhibition rate", "result": 13.7, "unit": "%"},
      {"measurement": "inhibition at 0.0125 µM", "setting": "[1]; A549, 48 h, A549, 12.5 nM, samples 1-3, read-out: cell proliferation inhibition rate", "result": 22.1, "unit": "%"},
      {"measurement": "inhibition at 0.025 µM", "setting": "[1]; A549, 48 h, A549, 25.0 nM, samples 1-3, read-out: cell proliferation inhibition rate", "result": 41.5, "unit": "%"},
      {"measurement": "inhibition at 0.05 µM", "setting": "[1]; A549, 48 h, A549, 50.0 nM, samples 1-3, read-out: cell proliferation inhibition rate", "result": 63, "unit": "%"},
      {"measurement": "inhibition at 0.1 µM", "setting": "[1]; A549, 48 h, A549, 100.0 nM, samples 1-3, read-out: cell proliferation inhibition rate", "result": 80.1, "unit": "%"},
      {"measurement": "inhibition at 0.2 µM", "setting": "[1]; A549, 48 h, A549, 200.0 nM, samples 1-3, read-out: cell proliferation inhibition rate", "result": 99.2, "unit": "%"},
      {"measurement": "IC50", "setting": "[1]; lung adenocarcinoma cells A549, MTT", "result": "30.23 ± 0.17", "unit": "nM"},
      {"measurement": "cell proliferation inhibition rate", "setting": "[2]; HepG2, 3.1 nM, samples 1-3, 0.0031 µM", "result": "28.7555 and 29.2302"},
      {"measurement": "cell proliferation inhibition rate", "setting": "[2]; HepG2, 6.3 nM, samples 1-3, 0.0063 µM", "result": "39.8542 and 49.5151"},
      {"measurement": "cell proliferation inhibition rate", "setting": "[2]; HepG2, 12.5 nM, samples 1-3, 0.0125 µM", "result": "51.8210 and 55.5307"},
      {"measurement": "cell proliferation inhibition rate", "setting": "[2]; HepG2, 25.0 nM, samples 1-3, 0.025 µM", "result": "66.7752 and 69.1489"},
      {"measurement": "cell proliferation inhibition rate", "setting": "[2]; HepG2, 50.0 nM, samples 1-3, 0.05 µM", "result": "79.9729 and 77.1075"},
      {"measurement": "cell proliferation inhibition rate", "setting": "[2]; HepG2, 100.0 nM, samples 1-3, 0.1 µM", "result": "88.3181 and 85.8901"},
      {"measurement": "cell proliferation inhibition rate", "setting": "[2]; HepG2, 200.0 nM, samples 1-3, 0.2 µM", "result": "99.2815 and 99.0448"},
      {"measurement": "inhibition at 0.0031 µM", "setting": "[2]; Homo sapiens, HepG2, 48 h, HepG2, 3.1 nM, samples 1-3, read-out: cell proliferation inhibition rate", "result": 29, "unit": "%"},
      {"measurement": "inhibition at 0.0063 µM", "setting": "[2]; Homo sapiens, HepG2, 48 h, HepG2, 6.3 nM, samples 1-3, read-out: cell proliferation inhibition rate", "result": 39.7, "unit": "%"},
      {"measurement": "inhibition at 0.0125 µM", "setting": "[2]; Homo sapiens, HepG2, 48 h, HepG2, 12.5 nM, samples 1-3, read-out: cell proliferation inhibition rate", "result": 48.7, "unit": "%"},
      {"measurement": "inhibition at 0.025 µM", "setting": "[2]; Homo sapiens, HepG2, 48 h, HepG2, 25.0 nM, samples 1-3, read-out: cell proliferation inhibition rate", "result": 68, "unit": "%"},
      {"measurement": "inhibition at 0.05 µM", "setting": "[2]; Homo sapiens, HepG2, 48 h, HepG2, 50.0 nM, samples 1-3, read-out: cell proliferation inhibition rate", "result": 78.5, "unit": "%"},
      {"measurement": "inhibition at 0.1 µM", "setting": "[2]; Homo sapiens, HepG2, 48 h, HepG2, 100.0 nM, samples 1-3, read-out: cell proliferation inhibition rate", "result": 88.2, "unit": "%"},
      {"measurement": "inhibition at 0.2 µM", "setting": "[2]; Homo sapiens, HepG2, 48 h, HepG2, 200.0 nM, samples 1-3, read-out: cell proliferation inhibition rate", "result": 95.2, "unit": "%"},
      {"measurement": "IC50", "setting": "[2]; Homo sapiens, hepatocellular carcinoma cells HepG2, MTT", "result": "10.5 ± 0.33", "unit": "nM"},
      {"measurement": "inhibition at 0.0031 µM", "setting": "[3]; Homo sapiens, MDA-MB-231, 48 h, MDA-MB-231, 3.1 nM, samples 1-3, read-out: cell proliferation inhibition rate", "result": 14.6, "unit": "%"},
      {"measurement": "inhibition at 0.0063 µM", "setting": "[3]; Homo sapiens, MDA-MB-231, 48 h, MDA-MB-231, 6.3 nM, samples 1-3, read-out: cell proliferation inhibition rate", "result": 25.7, "unit": "%"},
      {"measurement": "inhibition at 0.0125 µM", "setting": "[3]; Homo sapiens, MDA-MB-231, 48 h, MDA-MB-231, 12.5 nM, samples 1-3, read-out: cell proliferation inhibition rate", "result": 31.7, "unit": "%"},
      {"measurement": "inhibition at 0.025 µM", "setting": "[3]; Homo sapiens, MDA-MB-231, 48 h, MDA-MB-231, 25.0 nM, samples 1-3, read-out: cell proliferation inhibition rate", "result": 42.1, "unit": "%"},
      {"measurement": "inhibition at 0.05 µM", "setting": "[3]; Homo sapiens, MDA-MB-231, 48 h, MDA-MB-231, 50.0 nM, samples 1-3, read-out: cell proliferation inhibition rate", "result": 71.5, "unit": "%"},
      {"measurement": "inhibition at 0.1 µM", "setting": "[3]; Homo sapiens, MDA-MB-231, 48 h, MDA-MB-231, 100.0 nM, samples 1-3, read-out: cell proliferation inhibition rate", "result": 83, "unit": "%"},
      {"measurement": "inhibition at 0.2 µM", "setting": "[3]; Homo sapiens, MDA-MB-231, 48 h, MDA-MB-231, 200.0 nM, samples 1-3, read-out: cell proliferation inhibition rate", "result": 98.1, "unit": "%"},
      {"measurement": "IC50", "setting": "[3]; Homo sapiens, breast cancer cells MDA-MB-231, MTT", "result": "22.4 ± 0.24", "unit": "nM"},
      {"measurement": "cell proliferation inhibition rate", "setting": "[3]; MDA-MB-231, 3.1 nM, samples 1-3, 0.0031 µM", "result": "11.4171 and 14.3285"},
      {"measurement": "cell proliferation inhibition rate", "setting": "[3]; MDA-MB-231, 6.3 nM, samples 1-3, 0.0063 µM", "result": "23.5657 and 26.9811"},
      {"measurement": "cell proliferation inhibition rate", "setting": "[3]; MDA-MB-231, 12.5 nM, samples 1-3, 0.0125 µM", "result": "36.7429 and 35.2571"},
      {"measurement": "cell proliferation inhibition rate", "setting": "[3]; MDA-MB-231, 25.0 nM, samples 1-3, 0.025 µM", "result": "49.4400 and 45.9563"},
      {"measurement": "cell proliferation inhibition rate", "setting": "[3]; MDA-MB-231, 50.0 nM, samples 1-3, 0.05 µM", "result": "73.2000 and 76.9811"},
      {"measurement": "cell proliferation inhibition rate", "setting": "[3]; MDA-MB-231, 100.0 nM, samples 1-3, 0.1 µM", "result": "86.0800 and 88.6718"},
      {"measurement": "cell proliferation inhibition rate", "setting": "[3]; MDA-MB-231, 200.0 nM, samples 1-3, 0.2 µM", "result": "94.2971 and 93.2186"}
    ]}
  ]
}
